Source: ChEMBL document CHEMBL1123604 (J Med Chem, 1987)

Tests used:
[1] = system: Canis familiaris; test: Change in heart rate(HR) in anesthetized dog; type: functional, Canis lupus familiaris
[2] = system: Canis familiaris; test: Change in mean arterial blood pressure(MAP) in anesthetized dog; type: functional, Canis lupus familiaris, Artery
[3] = system: Canis familiaris; test: Myocardial contractility in anesthetized dog by intravenous dose; type: functional; conditions: Canis lupus familiaris, Myocardium
[4] = Inhibition of Guinea Pig cAMP specific phosphodiesterase (PDE III)
[5] = system: Canis familiaris; test: Increased myocardial contractility (dP/dt max) in anesthetized dog at 2 mg/kg; type: functional, Canis lupus familiaris, Myocardium
[6] = Inhibition of Guinea Pig cAMP specific phosphodiesterase (PDE III); remark: listed apart in the source
[7] = system: Canis familiaris; test: Increased contractility (dP/dt max) in Conscious dog at peroral dose of 0.31 mg/kg; type: functional, Canis lupus familiaris; conditions: route oral
[8] = system: Canis familiaris; test: Percent change of heart rate in anesthetized dog at 0.1 mg/kg; type: functional, Canis lupus familiaris
[9] = system: Canis familiaris; test: Percent change of ventricular pressure in anesthetized dog at 0.31 mg/kg; type: functional, Canis lupus familiaris, Cardiac ventricle
[10] = system: Canis familiaris; test: Percent change in blood pressure in anesthetized dog at 0.31 mg/kg; type: functional, Canis lupus familiaris
[11] = system: Canis familiaris; test: Percent change of heart rate in anesthetized dog at 0.31 mg/kg; type: functional, Canis lupus familiaris
[12] = system: Canis familiaris; test: Percent change of ventricular pressure in anesthetized dog at 1 mg/kg; type: functional, Canis lupus familiaris, Cardiac ventricle
[13] = system: Canis familiaris; test: Percent change in blood pressure in anesthetized dog at 1 mg/kg; type: functional, Canis lupus familiaris
[14] = system: Canis familiaris; test: Percent change of heart rate in anesthetized dog at 1 mg/kg; type: functional, Canis lupus familiaris
[15] = system: Canis familiaris; test: Increased myocardial contractility (dP/dt max) in anesthetized dog at 6 mg/kg; type: functional, Canis lupus familiaris, Myocardium
[16] = system: Canis familiaris; test: Percent change of ventricular pressure in anesthetized dog at 0.01 mg/kg; type: functional, Canis lupus familiaris, Cardiac ventricle
[17] = system: Canis familiaris; test: Percent change in blood pressure in anesthetized dog at 0.01 mg/kg; type: functional, Canis lupus familiaris
[18] = system: Canis familiaris; test: Percent change of heart rate in anesthetized dog at 0.01 mg/kg; type: functional, Canis lupus familiaris
[19] = system: Canis familiaris; test: Percent change of ventricular pressure in anesthetized dog at 0.031 mg/kg; type: functional, Canis lupus familiaris, Cardiac ventricle
[20] = system: Canis familiaris; test: Percent change of heart rate in anesthetized dog at 0.031 mg/kg; type: functional, Canis lupus familiaris
[21] = system: Canis familiaris; test: Percent change of ventricular pressure in anesthetized dog at 0.1 mg/kg; type: functional, Canis lupus familiaris, Cardiac ventricle
[22] = system: Canis familiaris; test: Percent change in blood pressure in anesthetized dog at 0.031 mg/kg; type: functional, Canis lupus familiaris
[23] = system: Canis familiaris; test: Percent change in blood pressure in anesthetized dog at 0.1 mg/kg; type: functional, Canis lupus familiaris
[24] = system: Canis familiaris; test: Increased myocardial contractility (dP/dt max) in anesthetized dog at 8 mg/kg; type: functional, Canis lupus familiaris, Myocardium
[25] = system: Canis familiaris; test: Increased myocardial contractility (dP/dt max) in conscious dog at 0.31 mg/kg peroral dose, range 10-20; type: functional, Canis lupus familiaris, Myocardium; conditions: route oral
[26] = system: Canis familiaris; test: Increased myocardial contractility (dP/dt max) in conscious dog at 1 mg/kg peroral dose; type: functional, Canis lupus familiaris, Myocardium; conditions: route oral
[27] = system: Canis familiaris; test: Percent change in ventricular pressure in anesthetized dog at 0.031 mg/kg; type: functional, Canis lupus familiaris, Cardiac ventricle
[28] = system: Canis familiaris; test: Percent change in heart rate in anesthetized dog at 0.031 mg/kg; type: functional, Canis lupus familiaris
[29] = system: Canis familiaris; test: Percent change in ventricular pressure in anesthetized dog at 0.1 mg/kg; type: functional, Canis lupus familiaris, Cardiac ventricle
[30] = system: Canis familiaris; test: Increased myocardial contractility (dP/dt max) in anesthetized dog

Question: Which Change [1] does the source give for `CCC1C(=O)NN=C1c1ccc(-n2ccnc2)cc1` (stereo not drawn) here?
Answer: 0%

Question: And the Change [2]?
Answer: 0%

Question: What about the ED50 [3] of the same molecule?
Answer: > 1 mg/kg

Question: What about the IC50 [4] of the same molecule?
Answer: 270 µM

Question: With `CC1CC(c2ccc(-n3ccnc3)cc2)=NNC1=O` (stereo not drawn) as the molecule, how does the Dose [5] read?
Answer: 0.5 mg/kg

Question: For `CCC1(C)C(=O)NN=C1c1ccc(-n2ccnc2)cc1` (stereo not drawn), which Change [1] is on record?
Answer: 17%

Question: What about the Change [2] of the same molecule?
Answer: 6%

Question: What about the ED50 [3] of the same molecule?
Answer: 0.37 mg/kg

Question: And the IC50 [4]?
Answer: 52 µM

Question: With `CC1(C)C(=O)NN=C1c1ccc(-n2cnc3c2CCCC3)cc1` as the molecule, how does the Change [1] read?
Answer: 10%

Question: What about the Change [2] of the same molecule?
Answer: -10%

Question: What about the ED50 [3] of the same molecule?
Answer: 0.2 mg/kg

Question: What about the IC50 [4] of the same molecule?
Answer: 3.2 µM

Question: For `CC1(C)CC(=O)NN=C1c1ccc(-n2ccnc2)cc1`, which Dose [5] is on record?
Answer: 0.2 mg/kg

Question: With `CSc1ccc(C2=NNC(=O)C2(C)C)cc1` as the molecule, how does the Change [1] read?
Answer: 5%

Question: What about the Change [2] of the same molecule?
Answer: -1%

Question: And the ED50 [3]?
Answer: 0.35 mg/kg

Question: What does the source list for `CC1(C)C(=O)NN=C1c1ccncc1`?
Answer: Change [1]: 11%; Change [2]: 1%; ED50 [3]: 0.3 mg/kg

Question: With `CC1(C)CC(c2ccc(-n3ccnc3)cc2)=NNC1=O` as the molecule, how does the Dose [5] read?
Answer: 0.05 mg/kg

Question: Which results are given for `O=C1NN=C(c2ccc(-n3ccnc3)cc2)C12CCCC2`?
Answer: Change [1]: 3.5%; Change [2]: -0.25%; ED50 [3]: 1 mg/kg; IC50 [4]: 54 µM

Question: What does the source list for `CC1C(=O)NN=C1c1ccc(-n2ccnc2)cc1` (stereo not drawn)?
Answer: Change [1]: 0%; Change [2]: 0%; ED50 [3]: > 1 mg/kg; IC50 [6]: 140 µM

Question: What does the source list for `O=C1CC(c2ccc(-n3ccnc3)cc2)=NN1`?
Answer: Change [1]: 0%; Change [2]: 0%; ED50 [3]: > 1 mg/kg; IC50 [4]: 590 µM

Question: Which results are given for `CC1(C)C(=O)NN=C1c1ccc(-n2ccnc2)cc1`?
Answer: Change [7]: 24%; Change [8]: 0.8%; Change [9]: 78%; Change [10]: -20%; Change [11]: 9%; Change [12]: 100%; Change [13]: -34%; Change [14]: 14%; Dose [15]: 0.18 mg/kg; Change [16]: 6%; Change [17]: -0.5%; Change [18]: 0%; Change [19]: 10%; Change [20]: 0.2%; Change [21]: 39%; Change [22]: -4%; Change [23]: -11%; Change [1]: 4.9%; Change [2]: -14%; ED50 [3]: 0.18 mg/kg; IC50 [4]: 22 µM

Question: With `CCC1(CC)C(=O)NN=C1c1ccc(-n2ccnc2)cc1` as the molecule, how does the Change [1] read?
Answer: 0%

Question: And the Change [2]?
Answer: 0%

Question: What about the ED50 [3] of the same molecule?
Answer: > 1 mg/kg

Question: What about the IC50 [4] of the same molecule?
Answer: 120 µM

Question: For `CC1CC(O)=NN=C1c1ccc(-n2ccnc2)cc1` (stereo not drawn) [CI-930], which Dose [15] is on record?
Answer: 0.013 mg/kg

Question: For `O=C1CCC(c2ccc(-n3ccnc3)cc2)=NN1` [IMAZODAN], which Change [8] is on record?
Answer: 6.2%

Question: And the Change [9]?
Answer: 127.3%

Question: What about the Change [10] of the same molecule?
Answer: -13.2%

Question: What about the Change [11] of the same molecule?
Answer: 19.2%

Question: And the Change [12]?
Answer: 146.7%

Question: And the Change [13]?
Answer: -22.4%

Question: What about the Change [14] of the same molecule?
Answer: 33.8%

Question: And the Dose [24]?
Answer: 0.045 mg/kg

Question: And the Change [16]?
Answer: 10.2%

Question: And the Change [17]?
Answer: -0.7%

Question: And the Change [18]?
Answer: 0%

Question: What about the Increase contractility [25] of the same molecule?
Answer: 10%

Question: What about the Increase contractility [26] of the same molecule?
Answer: 40%

Question: What about the Change [27] of the same molecule?
Answer: 37.2%

Question: And the Change [22]?
Answer: -4.1%

Question: What about the Change [28] of the same molecule?
Answer: 5.6%

Question: What about the Change [29] of the same molecule?
Answer: 74.2%

Question: What about the Change [23] of the same molecule?
Answer: -5.3%

Question: What about the Dose [30] of the same molecule?
Answer: 0.045 mg/kg
